Data taken from US20240358702A1, “CYCLIC UREA KRAS INHIBITORS” (INCYTE CORPORATION, priority 2023, published 2024).

Legend:
[1] = molecular target: KRAS G12D (Homo sapiens, UniProt P01116, G12D); assay: GDP-GTP exchange assay (bodipy-GDP/GppNHp, SOS1), KRAS G12D; assay type: biochemical; details: KRAS_G12D exchange assay IC50; 4 h pre-incubation; value for the most potent isomer quoted
Description: (§1) The inhibitor potency of the exemplified compounds was determined in a fluorescence based guanine nucleotide exchange assay, which measures the exchange of bodipy-GDP (fluorescently labeled GDP) for GppNHp (Non-hydrolyzable GTP analog) to generate the active state of KRAS in the presence of SOS1 (guanine nucleotide exchange factor). Inhibitors were serially diluted in DMSO and a volume of 0.1 μL was transferred to the wells of a black low volume 384-well plate. 5 μL/well volume of bodipy-loaded KRAS G12D diluted to […] in assay buffer (25 mM Hepes pH 7.5, 50 mM NaCl, 10 mM mgCl2 and 0.01% Brij-35) was added to the plate and pre-incubated with inhibitor for 4 h at ambient temperature. Appropriate controls (enzyme with no inhibitor or with a G12D inhibitor) were included on the plate. The exchange was initiated by the addition of a 5 μL/well volume containing 1 mM GppNHp and 300 nM SOS1 in assay buffer. The 10 μL/well reaction concentration of the bodipy-loaded KRAS G12D, GppNHp, and SOS1 were 2.5 nM, 500 uM, and 150 nM, respectively. The reaction plates were incubated at ambient temperature for 2 h, a time estimated for complete GDP-GTP exchange in the absence of inhibitor. For the KRAS G12V mutant, similar guanine nucleotide exchange assays were used with 2.5 nM as final concentration for the bodipy loaded KRAS proteins and 3 h incubation after adding GppNHp-SOS1 mixture. A cyclic peptide described to selectively bind G12D mutant (Sakamoto et al., BBRC 484.3 (2017), 605-611) or internal compounds with confirmed binding were used as positive controls in the assay plates. Fluorescence intensities were measured on a PheraStar plate reader instrument (BMG Labtech) with excitation at 485 nm and emission at 520 nm.
(§2) Either GraphPad prism or Genedata Screener SmartFit was used to analyze the data. The IC50 values were derived by fitting the data to a four parameter logistic equation producing a sigmoidal dose-response curve with a variable Hill coefficient.
(§3) The symbol “t” indicates IC50≤100 nM, “††” indicates IC50>100 nM but ≤1 μM; and “†††” indicates IC50 is >1 μM but ≤5 μM, “††††” indicates IC50 is >5 μM but ≤10 μM. “NA” indicates IC50 not available.

[2] = molecular target: KRAS G12V (Homo sapiens, UniProt P01116, G12V); assay: GDP-GTP exchange assay (bodipy-GDP/GppNHp, SOS1), KRAS G12V; assay type: biochemical; details: KRAS_G12V exchange assay IC50, value for the most potent isomer quoted
Description: as §1, §2, §3

[3] = test system: Caco-2 cells; assay: Caco2 assay (permeability, A-B); assay type: in vitro ADME; details: Papp absorptive direction (A-B), test compound 50 μM, 120 minutes
Description: Caco-2 cells are grown at 37° C. in an atmosphere of 5% CO2 in DMEM growth medium supplemented with 10% (v/v) fetal bovine serum, 1% (v/v) nonessential amino acids, penicillin (100 U/mL), and streptomycin (100 μg/mL). Confluent cell monolayers are subcultured every 7 days or 4 days for Caco-2 by treatment with 0.05% trypsin containing […]. Caco-2 cells are seeded in 96-well Transwell plates. The seeding density for Caco-2 cells is 14,000 cells/well. DMEM growth medium is replaced every other day after seeding. Cell monolayers are used for transport assays between 22 and 25 days for Caco-2 cells.
Cell culture medium is removed and replaced with HBSS. To measure the TEER, the HBSS is added into the donor compartment (apical side) and receiver compartment (basolateral side). The TEER is measured by using a REMS Autosampler to ensure the integrity of the cell monolayers. Caco-2 cell monolayers with TEER values≥300 Ω·cm^2 are used for transport experiments. To determine the Papp in the absorptive direction (A-B), solution of test compound (50 μM) in HBSS is added to the donor compartment (apical side), while HBSS solution with 4% BSA is added to the receiver compartment (basolateral side). The apical volume was 0.075 mL, and the basolateral volume is 0.25 mL. The incubation period is 120 minutes at 37° C. in an atmosphere of 5% CO2. At the end of the incubation period, samples from the donor and receiver sides are removed and an equal volume of acetonitrile is added for protein precipitation. The supernatants are collected after centrifugation (3000 rpm, Allegra X-14R Centrifuge from Beckman Coulter, Indianapolis, IN) for LCMS analysis. The permeability value is determined according to the equation: […]
where the flux rate (F, mass/time) is calculated from the slope of cumulative amounts of compound of interest on the receiver side, SA is the surface area of the cell membrane, VD is the donor volume, and MD is the initial amount of the solution in the donor chamber.
The symbol “+” indicates a Caco-2 value of […], “++” indicates a Caco-2 value of >0.5 but ≤1; and “+++” indicates a Caco-2 value of >1. “NA” indicates IC50 not available.

KRAS G12D, sequence (P01116 1-188 isoform P01116-2 G12D): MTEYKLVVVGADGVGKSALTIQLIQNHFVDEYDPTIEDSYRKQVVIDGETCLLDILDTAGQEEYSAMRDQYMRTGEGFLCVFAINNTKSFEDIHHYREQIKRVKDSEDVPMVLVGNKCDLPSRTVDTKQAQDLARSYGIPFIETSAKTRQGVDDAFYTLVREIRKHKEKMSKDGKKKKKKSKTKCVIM
KRAS G12V, sequence (P01116 1-188 isoform P01116-2 G12V): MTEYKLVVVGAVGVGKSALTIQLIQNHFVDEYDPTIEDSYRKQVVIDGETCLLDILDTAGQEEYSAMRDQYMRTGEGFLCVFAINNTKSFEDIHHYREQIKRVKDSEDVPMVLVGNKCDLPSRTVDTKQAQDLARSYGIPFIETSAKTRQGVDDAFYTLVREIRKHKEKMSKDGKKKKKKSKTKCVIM

## Cc1nc2c(F)c(-c3cccc(Cl)c3Cl)c(CCC#N)cc2c2c1cc([C@@H](C)N1CCCN(c3ccncc3)C1=O)n2[C@H]1[C@H]2CN[C@@H]1C2 (single isomer, unassigned) [Example 1]
[1]
  G12D_exchange: †
[2]
  G12V_exchange: †
[3]
  Caco-2: +++ (“+++” indicates a Caco-2 value of >1)

## Cc1nc2c(F)c(-c3cccc(Cl)c3Cl)c(CCC#N)cc2c2c1cc([C@@H](C)N1CCCN(c3ccccc3)C1=O)n2[C@H]1[C@H]2CN[C@@H]1C2 (single isomer, unassigned) [Example 2]
[1]
  G12D_exchange: †
[2]
  G12V_exchange: †
[3]
  Caco-2: +++ (“+++” indicates a Caco-2 value of >1)

## Cc1nc2c(F)c(-c3cccc(Cl)c3Cl)c(CCC#N)cc2c2c1cc([C@@H](C)N1CCCN(c3ccc(F)cc3)C1=O)n2[C@H]1[C@H]2CN[C@@H]1C2 (single isomer, unassigned) [Example 3]
[1]
  G12D_exchange: †
[2]
  G12V_exchange: †
[3]
  Caco-2: +++ (“+++” indicates a Caco-2 value of >1)

## Cc1nc2c(F)c(-c3cccc(Cl)c3Cl)c(CCC#N)cc2c2c1cc([C@@H](C)N1CCCN(c3ccccn3)C1=O)n2[C@H]1[C@H]2CN[C@@H]1C2 (single isomer, unassigned) [Example 4]
[1]
  G12D_exchange: †
[2]
  G12V_exchange: †
[3]
  Caco-2: + (“+” indicates a Caco-2 value of 50.5)

## Cc1nc2c(F)c(-c3cccc(Cl)c3Cl)c(CCC#N)cc2c2c1cc([C@@H](C)N1CCCN(c3ccncc3F)C1=O)n2[C@H]1[C@H]2CN[C@@H]1C2 (single isomer, unassigned) [Example 5]
[1]
  G12D_exchange: †
[2]
  G12V_exchange: †
[3]
  Caco-2: +++ (“+++” indicates a Caco-2 value of >1)

## Cc1nc2c(F)c(-c3cccc(Cl)c3Cl)c(CCC#N)cc2c2c1cc([C@@H](C)N1CCCN(c3ccnc(F)c3)C1=O)n2[C@H]1[C@H]2CN[C@@H]1C2 (single isomer, unassigned) [Example 6]
[1]
  G12D_exchange: †
[2]
  G12V_exchange: †
[3]
  Caco-2: +++ (“+++” indicates a Caco-2 value of >1)

## Cc1nc2c(F)c(-c3cccc(Cl)c3Cl)c(CCC#N)cc2c2c1cc([C@@H](C)N1CCCN(c3ccc(F)cn3)C1=O)n2[C@H]1[C@H]2CN[C@@H]1C2 (single isomer, unassigned) [Example 7]
[1]
  G12D_exchange: †
[2]
  G12V_exchange: †
[3]
  Caco-2: +++ (“+++” indicates a Caco-2 value of >1)

## CC(O)c1nc2c(F)c(-c3cccc(Cl)c3Cl)c(CCC#N)cc2c2c1cc([C@@H](C)N1CCCN(c3ccncc3)C1=O)n2[C@H]1[C@H]2CN[C@@H]1C2 (single isomer, unassigned) [Example 14]
[1]
  G12D_exchange: †
[2]
  G12V_exchange: †
[3]
  Caco-2: + (“+” indicates a Caco-2 value of 50.5)

## Cc1c(Cl)cc(O)cc1-c1c(CCC#N)cc2c(nc(C)c3cc([C@@H](C)N4CCCN(c5ccncc5)C4=O)n([C@H]4[C@H]5CN[C@@H]4C5)c32)c1F [Example 15, 3-(1-((1R,4R,5S)-2-azabicyclo[2.1.1]hexan-5-yl)-7-(3-chloro-5-hydroxy-2-methylphenyl)-6-fluoro-4-methyl-2-((R)-1-(2-oxo-3-(pyridin-4-yl)tetrahydropyrimidin-1(2H)-yl)ethyl)-1H-pyrrolo[3,2-c]quinolin-8-yl)propanenitrile]
[1]
  G12D_exchange: †
[2]
  G12V_exchange: †
[3]
  Caco-2: + (“+” indicates a Caco-2 value of 50.5)

## Cc1nc2c(F)c(-c3cccc(Cl)c3Cl)c(CCC#N)cc2c2c1cc([C@@H](C)N1CCCN(c3ccc(F)cn3)C1=O)n2[C@H]1[C@H]2CN[C@@H]1C2 [Example 40, 3-(1-((1R,4R,5S)-2-azabicyclo[2.1.1]hexan-5-yl)-7-(2,3-dichlorophenyl)-6-fluoro-2-((R)-1-(3-(5-fluoropyridin-2-yl)-2-oxotetrahydropyrimidin-1(2H)-yl)ethyl)-4-methyl-1H-pyrrolo[3,2-c]quinolin-8-yl)propanenitrile]
[1]
  G12D_exchange: †
[2]
  G12V_exchange: †

## Cc1nc2c(F)c(-c3cccc(Cl)c3Cl)c(CCC#N)cc2c2c1cc([C@@H](C)N1CCCN(c3cccc(F)n3)C1=O)n2[C@H]1[C@H]2CN[C@@H]1C2 [Example 41, 3-(1-((1R,4R,5S)-2-azabicyclo[2.1.1]hexan-5-yl)-7-(2,3-dichlorophenyl)-6-fluoro-2-((R)-1-(3-(6-fluoropyridin-2-yl)-2-oxotetrahydropyrimidin-1(2H)-yl)ethyl)-4-methyl-1H-pyrrolo[3,2-c]quinolin-8-yl)propanenitrile]
[1]
  G12D_exchange: †
[2]; read-out: G12V_exchange
  IC50: 100 to 1000 nM
